Source: paper PMC9290008 (ACS Medicinal Chemistry Letters, 2022)

Assay: GSH incorporation experiments
Type: in vitro ADME, human
Details: 10 μM compound, GSH 5 mM, 37 °C, 30 min; for % GSH + HLM: presence of HLM; for %GSH − HLM: absence of HLM

% GSH + HLM [%] | %GSH − HLM [%] | SMILES
96.0 | – | Clc1ncc(Cl)c(-n2ccc3ncccc32)n1 [Compound 1]
53.5 | 0.1 | Clc1nccc(-n2ccc3ncccc32)n1 [Compound 8]
99.9 | 2.5 | Clc1ncc(Cl)c(-n2ccc3ncncc32)n1 [Compound 20]
16.1 | 0 | Clc1ncc(Cl)c(-c2c[nH]c3ncncc23)n1 [Compound 21]
49.9 | 2.8 | N#Cc1ccc(Cl)nc1-n1ccc2ncncc21 [Compound 23]
